This note sets out measurements from patent US20150018311A1, “THERAPEUTIC BORON-CONTAINING COMPOUNDS” (priority 2012, published 2015).

Common to all, as to assay: Growth in liquid media in presence of test compound
Common to all, as to assay type: cell-based

The test system of assay [1] is Mycobacterium tuberculosis (H37Rv).
Assay [2] concerns Candida albicans (ATCC 90028). An excerpt:
(§1) Test organisms used were the bacterial strains Escherichia coli (ATCC 25922), Pseudomonas aeruginosa (ATCC 27853), Staphylococcus aureus (ATCC 25923), Streptococcus pyogenes (ATCC 19615), and Mycobacterium tuberculosis (H37Rv), and the yeast strain Candida albicans (ATCC 90028).
(§2) The liquid media used for growth were Luria-Bertani (Becton Dickinson, Sparks, Md.) and Mueller-Hinton (bio-Merieux, Paris, France) broths, but with Saburo medium for Candida and Middlebrook 7H9 medium (Difco) for mycobacteria.
(§3) The strains were grown at 37° C. and after suitable cell concentrations had been reached, 100 μL of each cell suspension was added to a tube with growth media and test compound. Cultivation of the bacteria was then carried out in the presence of each test compound at 37° C. and the tubes examined for visible growth. The compounds were tested at concentrations of either 500 mg/l, 50 mg/l or 5 mg/l. This assay was repeated twice.
(§4) Some compounds were only tested against some test organisms. It will be appreciated that the charge of these molecules will depend on the environment, some of the Examples are shown with a suitable counter ion, some without.

The test system of assay [3] is Escherichia coli (ATCC 25922).
From the text: as §1, §2, §3, §4

Assay [4] deals with Pseudomonas aeruginosa (ATCC 27853).
From the text: as §1, §2, §3, §4

Assay [5] deals with Staphylococcus aureus (ATCC 25923).
From the text: as §1, §2, §3, §4

For assay [6], the system named is Streptococcus pyogenes (ATCC 19615).
From the text: as §1, §2, §3, §4

The structures appear in SMILES notation.

In the case of `C[C@H](N)C(=O)NC[C@H](Cc1ccccc1)B1OC2CC3CC(C3(C)C)[C@]2(C)O1` (stereo partly drawn) [Compound 15], the “Growth in the presence of test compound, M. tuberculosis” value (from here on “Growth … M. tuberculosis”) in assay [1] (5 mg/L) is recorded as “+”; in assay [1] (50 mg/L), “−”; in assay [1] (500 mg/L), “−”. For the same molecule, the “Growth in the presence of test compound, C. albicans” value (“Growth in the presence … C. albicans” for short) is on record as “+” in assay [2] (5 mg/L), “+” in assay [2] (50 mg/L) and “−” in assay [2] (500 mg/L). Moreover, the “Growth in the presence of test compound, E. coli” value (“Growth in the presence … E. coli” for short) in assay [3] (5 mg/L) is “+”; in assay [3] (50 mg/L) it was “+”; in assay [3] (500 mg/L), “±”. The “Growth in the presence of test compound, P. aeruginosa” value (“Growth … P. aeruginosa” for short) in assay [4] (5 mg/L), in assay [4] (50 mg/L) and in assay [4] (500 mg/L) was “+” each time. For the same molecule, the “Growth in the presence of test compound, S. aureus” value (shortened to “Growth in the presence … S. aureus”) in assay [5] (5 mg/L) was “+”; in assay [5] (50 mg/L), “+”; in assay [5] (500 mg/L), “−”. Further, the “Growth in the presence of test compound, S. pyogenes” value (“Growth in the presence … S. pyogenes” below) in assay [6] (5 mg/L), in assay [6] (50 mg/L) and in assay [6] (500 mg/L) was “+” throughout.
Consider `CC1(C)C2CC3OB([C@H](CCc4ccccc4)CNC(=O)[C@@H](N)Cc4ccccc4)O[C@]3(C)C1C2` (stereo partly drawn) [Compound 18], for which the “Growth … M. tuberculosis” value in assay [1] (5 mg/L) is “+”; in assay [1] (50 mg/L) it was “−”; in assay [1] (500 mg/L), “−”. For the same molecule, the “Growth in the presence … C. albicans” value in assay [2] (5 mg/L) is listed as “+”; in assay [2] (50 mg/L), “±”; in assay [2] (500 mg/L), “±”. For the same molecule, the “Growth in the presence … E. coli” value in assay [3] (5 mg/L), in assay [3] (50 mg/L) and in assay [3] (500 mg/L) was “+” each time. Besides, the “Growth … P. aeruginosa” value in assay [4] (5 mg/L) was “+”; in assay [4] (50 mg/L), “±”; in assay [4] (500 mg/L), “±”. Moreover, the “Growth in the presence … S. aureus” value is reported as “+” in assay [5] (5 mg/L), “−” in assay [5] (50 mg/L) and “±” in assay [5] (500 mg/L). In addition, the results for the “Growth in the presence … S. pyogenes” value in assay [6] (5 mg/L), in assay [6] (50 mg/L) and in assay [6] (500 mg/L) were “+”, “±” and “±”, respectively.
On to `CC1(C)C2CC3OB([C@H](CCc4ccccc4)CNC(=O)[C@@H](N)CCCCN)O[C@]3(C)C1C2` (stereo partly drawn) [Compound 19], for which the entries for the “Growth … M. tuberculosis” value in assay [1] (5 mg/L), in assay [1] (50 mg/L) and in assay [1] (500 mg/L) were “+”, “−” and “−”, respectively. In addition, the figures for the “Growth in the presence … C. albicans” value in assay [2] (5 mg/L), in assay [2] (50 mg/L) and in assay [2] (500 mg/L) were “+”, “+” and “−”, respectively. Besides, the “Growth in the presence … E. coli” value in assay [3] (5 mg/L) was “+”; in assay [3] (50 mg/L) it was “+”; in assay [3] (500 mg/L) it was “−”. Further, the “Growth … P. aeruginosa” value in assay [4] (5 mg/L) is “+”; in assay [4] (50 mg/L) it was “+”; in assay [4] (500 mg/L) it was “−”. The “Growth in the presence … S. aureus” value in assay [5] (5 mg/L) is recorded as “+”; in assay [5] (50 mg/L), “+”; in assay [5] (500 mg/L) it was “±”. Moreover, the “Growth in the presence … S. pyogenes” value in assay [6] (5 mg/L) is “+”; in assay [6] (50 mg/L), “+”; in assay [6] (500 mg/L), “−”.
For `CC1(C)C2CC3OB([C@H](CCc4ccccc4)CNC(=O)[C@H](N)CCCCN)O[C@]3(C)C1C2` (stereo partly drawn) [Compound 20], the entries for the “Growth … M. tuberculosis” value in assay [1] (5 mg/L), in assay [1] (50 mg/L) and in assay [1] (500 mg/L) were “+”, “−” and “−”, respectively. The “Growth in the presence … C. albicans” value is listed as “+” in assay [2] (5 mg/L), “±” in assay [2] (50 mg/L) and “±” in assay [2] (500 mg/L). Further, the “Growth in the presence … E. coli” value in assay [3] (5 mg/L), in assay [3] (50 mg/L) and in assay [3] (500 mg/L) was “+” throughout. The “Growth … P. aeruginosa” value in assay [4] (5 mg/L) is on record as “+”; in assay [4] (50 mg/L), “±”; in assay [4] (500 mg/L), “±”. For the same molecule, the “Growth in the presence … S. aureus” value in assay [5] (5 mg/L) was “+”; in assay [5] (50 mg/L), “−”; in assay [5] (500 mg/L), “±”. Further, the “Growth in the presence … S. pyogenes” value in assay [6] (5 mg/L) is recorded as “+”; in assay [6] (50 mg/L) it was “±”; in assay [6] (500 mg/L) it was “±”.
On to `CC1(C)C2CC3OB([C@@H](CNC(=O)[C@@H](N)CCCCN)Cc4ccc5ccccc5c4)O[C@]3(C)C1C2` (stereo partly drawn) [Compound 21], for which the “Growth … M. tuberculosis” value in assay [1] (5 mg/L), in assay [1] (50 mg/L) and in assay [1] (500 mg/L) was “−” throughout. Also, the “Growth in the presence … C. albicans” value in assay [2] (5 mg/L) was “+”; in assay [2] (50 mg/L), “+”; in assay [2] (500 mg/L), “±”. The “Growth in the presence … E. coli” value in assay [3] (5 mg/L), in assay [3] (50 mg/L) and in assay [3] (500 mg/L) was “+” throughout. Moreover, the “Growth … P. aeruginosa” value is listed as “+” in assay [4] (5 mg/L), “+” in assay [4] (50 mg/L) and “±” in assay [4] (500 mg/L). The “Growth in the presence … S. aureus” value in assay [5] (5 mg/L) is “+”; in assay [5] (50 mg/L) it was “±”; in assay [5] (500 mg/L), “+”. In addition, the “Growth in the presence … S. pyogenes” value is on record as “+” in assay [6] (5 mg/L), “+” in assay [6] (50 mg/L) and “±” in assay [6] (500 mg/L).
Consider `CC(NC(=O)C(N)CCCCN)C(Cc1ccccc1)B1OC2CC3CC(C3(C)C)C2(C)O1` (stereo not drawn) [Compound 26], for which the “Growth … M. tuberculosis” value in assay [1] (5 mg/L), in assay [1] (50 mg/L) and in assay [1] (500 mg/L) was “−” throughout. Moreover, the entries for the “Growth in the presence … C. albicans” value in assay [2] (5 mg/L), in assay [2] (50 mg/L) and in assay [2] (500 mg/L) were “+”, “+” and “−”, respectively. The “Growth in the presence … E. coli” value is given as “+” in assay [3] (5 mg/L), “+” in assay [3] (50 mg/L) and “−” in assay [3] (500 mg/L). For the same molecule, the figures for the “Growth … P. aeruginosa” value in assay [4] (5 mg/L), in assay [4] (50 mg/L) and in assay [4] (500 mg/L) were “+”, “+” and “−”, respectively. For the same molecule, the results for the “Growth in the presence … S. aureus” value in assay [5] (5 mg/L), in assay [5] (50 mg/L) and in assay [5] (500 mg/L) were “+”, “+” and “−”, respectively. Also, the “Growth in the presence … S. pyogenes” value in assay [6] (5 mg/L) is given as “+”; in assay [6] (50 mg/L) it was “+”; in assay [6] (500 mg/L) it was “−”.
With `CC(B1OC2CC3CC(C3(C)C)C2(C)O1)C(Cc1ccccc1)NC(=O)C(N)CCCCN` (stereo not drawn) [Compound 30], the entries for the “Growth … M. tuberculosis” value in assay [1] (5 mg/L), in assay [1] (50 mg/L) and in assay [1] (500 mg/L) were “+”, “−” and “−”, respectively. The “Growth in the presence … C. albicans” value in assay [2] (5 mg/L) was “+”; in assay [2] (50 mg/L), “+”; in assay [2] (500 mg/L), “−”. For the same molecule, the “Growth in the presence … E. coli” value is reported as “+” in assay [3] (5 mg/L), “+” in assay [3] (50 mg/L) and “−” in assay [3] (500 mg/L). The “Growth … P. aeruginosa” value is given as “+” in assay [4] (5 mg/L), “+” in assay [4] (50 mg/L) and “−” in assay [4] (500 mg/L). Besides, the “Growth in the presence … S. aureus” value was “+” in assay [5] (5 mg/L), “+” in assay [5] (50 mg/L) and “−” in assay [5] (500 mg/L). The “Growth in the presence … S. pyogenes” value in assay [6] (5 mg/L) is “+”; in assay [6] (50 mg/L), “+”; in assay [6] (500 mg/L), “−”.
